Experimental data reported in US5476933A, “Azepine synthesis via a diels-alder reaction” (priority 1994, dated 1995).
Read-outs that look alike come from different tables or passages of the source.

Legend:
[1] = molecular target: T1, glycine binding site of the NMDA receptor (Rattus norvegicus, UniProt P35439); test: 1 μM glycine-stimulated [3H]-MK-801 binding, rat brain membrane homogenates; conditions: for IC50: rat brain homogenates, [3H]-MK-801 binding, 1 μM glycine; for activity (glycine receptor antagonism), in words: structure-activity statements
T1 construct: rat brain membrane homogenates which are enriched in NMDA receptors; tissue Pel-Freez, Rogers, Ark; host or cells: whole rat brain, washed membrane homogenate
Description: ^a Experiments described herein utilizing rat brain homogenates and a
The assay is conducted using rat brain membrane homogenates which are enriched in NMDA receptors. The membranes are prepared as follows. Frozen rat brains (obtained from Pel-Freez, Rogers, Ark.) are homogenized in 15 volumes (w/v) of ice cold 0.32M sucrose. The homogenate is spun at 1,000×g for ten minutes. The supernatant is collected and spun for 20 minutes at 44,000×g. The pellet is suspended in 15 volumes of water (relative to original brain weight). The homogenate is again spun at 44,000×g for twenty minutes. The pellet is resuspended in 5 volumes of water and the suspension is freeze-thawed 2 times. After the final thaw cycle, the suspension is brought to 15 volumes with water and spun at 44,000×g for twenty minutes. The pellet is resuspended in 5 volumes of ice-cold 10 mM HEPES, and is titrated to pH 7.4 with KOH containing 0.04% Triton X-100. Membranes are incubated with the Triton/HEPES buffer at 37° C. for 15 minutes. The volume is then brought to 15 with ice-cold 10 mM HEPES, pH 7.4, and spun/washed three times with spins of 44,000×g between washes. The final pellet is suspended in three volumes of 50 mM HEPES, pH 7.4 and the protein concentration is determined with a standard dye-binding protein assay (Bio-Rad, Richmond, Calif.). The suspension is stored at -80° C. until used. Only HPLC grade water is used for all buffers and suspensions/washings. The extensive washings are necessary to remove as much endogenous glycine from the membrane preparation as possible.
Nonspecific binding is defined as the […] presence of PCP (final concentration: 100 μM). […] A 500 nM concentration (final) of 5,7-dichlorokynurenic (DCK) acid is added to all assay tubes. This concentration of the glycine antagonist DCK "buffers" most of the residual endogenous glycine that is not removed by the extensive washing steps that are carried out during the membrane preparation procedure.
The assays are incubated for 120 minutes at room temperature after which time the membrane-bound radioactivity is isolated from the free radioactivity by vacuum filtration through Whatman glass fiber filters that had been pretreated with 0.3% polyethyleneimine. Filtration is accomplished using a Brandel 48 well cell harvester. Filtered membranes are washed three times with 3 mL each of ice cold buffer. Filters are transferred to scintillation vials and 5 mL of scintillation cocktail is added. The vials are shaken overnight and the radioactivity is counted by liquid scintillation spectroscopy. The assays are done in triplicate and all experiments are conducted at least three times.
Inhibition dose response curves are constructed using increasing concentrations of glycine antagonists from 5 nM to 330 μM.
After constructing inhibition dose response curves and determination of glycine reversibility, Ki values for the glycine antagonists are calculated using the Cheng and Prusoff equation employing the experimentally determined IC50 values, the known concentration of glycine in the assay (1 μM) and the known affinity of glycine for the glycine binding site of the NMDA receptor (100 nM).
Binding Assays and In Vivo Studies.

[2] = molecular target: strychnine insensitive glycine site associated with the NMDA receptor complex; conditions: Swartz et al., cited from earlier work; for Kb: Mol. Pharmacol. 41:1130-1141 (1992), footnote d
glycine/NMDA receptor = molecular target: T2, glycine/NMDA receptor (Rattus norvegicus, UniProt P35439); test: electrophysiology using Xenopus oocytes; format: cell-based
T2 construct: expressed in transfected cells; host or cells: Xenopus oocytes (RNA injected)

[3] = molecular target: strychnine insensitive glycine site associated with the NMDA receptor complex; conditions: rat brain homogenates, [3H]-glycine binding; footnote b; cited from earlier work
guinea pig ileum = guinea pig ileum contraction; footnote c; cited from earlier work
male Swiss/Webster mice = test: maximum electroshock-induced seizure (MES) assay; format: in vivo, mouse; conditions: anticonvulsant, MES in mice; for ED50: Mus musculus, iv
Description: The anticonvulsant activity of the glycine antagonists may be assessed in the maximum electroshock-induced seizure (MES) assay in mice. […] The seizure stimulus parameters are 50 mA, 60 Hz, rectangular pulse, width 0.8 msec, duration 200 msec. Tonic hind limb extension observed after application of the electrical stimulus is recorded as occurrence of seizure.

[4] = literature; cited from earlier work
[5] = tested on: glycine binding site of the NMDA receptor; conditions: cited from earlier work; for affinity / antagonism at the glycine binding site, in words: literature
[6] = crossing of the blood/brain barrier; conditions: inferred from Ki and MES ED50
[7] = tested on: neurons in brain ischemia; conditions: literature; cited from earlier work
rodents = conditions: literature; cited from earlier work
pigeons = conditions: literature; cited from earlier work
[8] = from electrophysiology using Xenopus oocytes unless otherwise noted, read-out: Ki

## Cc1ccc2c(=O)cc(O)c(=O)[nH]c2c1 [Compound 3]
[1]; read-out: IC50
  IC50: 3.4 µM
[1]
  activity (glycine receptor antagonism), in words: enhanced activity
[2]
  Kb: 470 nM
  antagonism, in words: antagonists at the strychnine insensitive glycine site

## O=C(Nc1ccc2[nH]c(=O)c(O)cc(=O)c2c1)C(F)(F)F [Compound 13]
[1]
  IC50: Inactive

## CC1c2c([nH]c(=O)c(O)cc2=O)CC(Cl)C1Cl (stereo not shown) [Compound 112, 7,8-dichloro-3-hydroxy-6-methyl-6,7,8,9-tetrahydro,1H-1-benzazepine-2,5-dione]
[1]; read-out: IC50
  IC50: 0.38 µM
glycine/NMDA receptor; [8]
  Ki: 7 nM

## Cc1cccc2[nH]c(=O)c(O)cc(=O)c12 [Compound 93, 3-Hydroxy-6-methyl-1H-1-benzazepine-2,5-dione]
[1]; read-out: IC50
  IC50: 196 µM

## O=c1[nH]c2cc(F)ccc2c(=O)cc1O [Compound 5]
[1]; read-out: IC50
  IC50: 1.7 µM
[1]
  activity (glycine receptor antagonism), in words: enhanced activity

## O=c1[nH]c2ccccc2c(=O)cc1O [Compound 1, 3-hydroxy-1H-1-benzazepine-2,5-dione]
[1]; read-out: IC50
  IC50: 7.8 µM
[2]
  Kb: 3000 nM
  antagonism, in words: antagonists at the strychnine insensitive glycine site

## O=c1[nH]c2cc(Br)ccc2c(=O)cc1O [Compound 7]
[1]; read-out: IC50
  IC50: 1.3 µM
[1]
  activity (glycine receptor antagonism), in words: enhanced activity
[3]
  IC50: 97 nM
Guinea pig ileum
  IC50: 1000 nM

## O=c1[nH]c2cc(Cl)c(Cl)c([N+](=O)[O-])c2[nH]c1=O [6,7-dichloro-5-nitro-1,4-dihydroquinoxaline-2,3-dione]
glycine/NMDA receptor
  Ki: 3.3 nM
Male Swiss/Webster mice
  ED50 (MES): 4 to 5 mg/kg

## Cc1ccc(C)c2c(=O)cc(O)c(=O)[nH]c12 [Compound 45, 3-Hydroxy-6,9-dimethyl-1H-1-benzazepine-2,5-dione]
[1]
  IC50: inactive

## NC1CCN(O)C1=O (stereo not shown) [HA-966]
[4]
  blood/brain barrier penetration, in words: sufficiently penetrates the blood/brain barrier
[5]
  affinity / antagonism at the glycine binding site, in words: partial agonist with micromolar affinity for the glycine binding site

## O=c1cc(O)c(=O)[nH]c2c1CCCC2 [Compound 61, 3-Hydroxy-6,7,8,9-tetrahydro-1H-1-benzazepine-2,5-dione]
[1]; read-out: IC50
  IC50: 34 µM
glycine/NMDA receptor; [8]
  Ki: 1650 nM
[6]
  crossing the blood-brain-barrier, relative to 6,7-dichloro-5-nitro-1,4-dihydroquinoxaline-2,3-dione: about 100 times
Male Swiss/Webster mice
  ED50: 8 mg/kg

## O=c1[nH]c2ccc(Br)cc2c(=O)cc1O [Compound 15]
[1]
  IC50: Inactive

## O=c1[nH]c2cc(C(F)(F)F)ccc2c(=O)cc1O [Compound 16]
[1]; read-out: IC50
  IC50: 3.4 µM
[1]
  activity (glycine receptor antagonism), in words: enhanced activity

## O=C(O)c1cc2ccccc2[nH]1 [indole-2-carboxylic acid]
[4]
  blood/brain barrier penetration, in words: cannot penetrate the blood/brain barrier
[5]
  affinity / antagonism at the glycine binding site, in words: relatively high receptor binding affinity in vitro

## CC(=O)Nc1ccc2[nH]c(=O)c(O)cc(=O)c2c1 [Compound 12]
[1]; read-out: IC50
  IC50: 92.5 µM

## Cc1cccc2c(=O)cc(O)c(=O)[nH]c12 [Compound 43, 3-Hydroxy-9-methyl-1H-1-benzazepine-2,5-dione]
[1]
  IC50: inactive

## O=C(O)C1CC2CC(CP(=O)(O)O)CCC2CN1 (stereo not shown) [LY274614]
[7]
  neuroprotective efficacy, in words: neuroprotective efficacy

## NCC(=O)O [glycine]
[5]; used in Cheng and Prusoff equation, read-out: known affinity of glycine for the glycine binding site of the NMDA receptor
  Kd: 100 nM

## O=c1cc(O)c(=O)[nH]c2c1C1CCC2C1 (stereo not shown) [Compound 70, 3-hydroxy-6,9-methano-6,7,8,9-tetrahydro-1H-1-benzazepine-2,5-dione]
[1]; from binding assays (footnote d of Table 2)
  Ki: 760 nM
[1]; read-out: IC50
  IC50: 8.4 µM

## [N-]=[N+]=Nc1ccc2[nH]c(=O)c(O)cc(=O)c2c1 [Compound 14]
[1]
  IC50: Inactive

## CC1Cc2[nH]c(=O)c(O)cc(=O)c2CC1C (stereo not shown) [Compound 81, 7,8-dimethyl-3-hydroxy-6,7,8,9-tetrahydro-1H-1-benzazepine-2,5-dione]
[1]; read-out: IC50
  IC50: 9.28 µM
glycine/NMDA receptor; [8]
  Ki: 177 nM
Male Swiss/Webster mice
  ED50: 6 mg/kg

## Cc1cc(C)c2[nH]c(=O)c(O)cc(=O)c2c1 [Compound 44, 3-Hydroxy-7,9-dimethyl-1H-1-benzazepine-2,5-dione]
[1]
  IC50: inactive

## Cc1ccc2[nH]c(=O)c(O)cc(=O)c2c1C [Compound 109, 6,7-dimethyl-3-hydroxy-1H-1-benzazepine-2,5-dione]
[1]
  IC50: inactive

## O=C(O)[C@@H]1C[C@H](CP(=O)(O)O)CCN1 [CGS 19755]
[7]
  neuroprotective efficacy, in words: neuroprotective efficacy
rodents
  PCP-like behavioral effects, in words: adverse PCP-like behavioral side effects

## Cc1cc2[nH]c(=O)c(O)cc(=O)c2cc1C [Compound 46, 3-Hydroxy-7,8-dimethyl-1-benzazepine-2,5-dione]
[1]; read-out: IC50
  IC50: 7.3 µM

## O=C(O)c1cc(O)c2ccc(Cl)cc2n1 [7-Cl-kynurenic acid]
[4]
  blood/brain barrier penetration, in words: cannot penetrate the blood/brain barrier
[5]
  affinity / antagonism at the glycine binding site, in words: relatively high receptor binding affinity in vitro

## O=C(O)c1cc(O)c2c(Cl)cc(Cl)cc2n1 [5,7-dichlorokynurenic acid (DCK), 5,7-dichlorokynurenic acid]
[5]
  affinity / antagonism at the glycine binding site, in words: relatively high receptor binding affinity in vitro

## Cc1ccc2[nH]c(=O)c(O)cc(=O)c2c1 [Compound 2]
[2]
  Kb: 9500 nM
  antagonism, in words: antagonists at the strychnine insensitive glycine site

## Cc1cc2[nH]c(=O)c(O)cc(=O)c2c(C)c1[N+](=O)[O-] [Compound 99, 6,8-Dimethyl-3-hydroxy-7-nitro-1H-1-benzazepine-2,5-dione]
[1]; read-out: IC50
  IC50: 69.5 µM

## c1ccc(C2(N3CCCCC3)CCCCC2)cc1 [PCP, phencyclidine]
[7]
  neuroprotective efficacy, in words: neuroprotective efficacy both in vitro and in vivo
pigeons
  katalepsy, in words: characteristic katalepsy in pigeons
rodents
  PCP-like behavioral effects, in words: behavioral excitation (hyperlocomotion)

## O=c1[nH]c2cc(Cl)ccc2c(=O)cc1O [Compound 6]
[1]; read-out: IC50
  IC50: 2.5 µM
[1]
  activity (glycine receptor antagonism), in words: enhanced activity
[3]
  IC50: 30 nM
Guinea pig ileum
  IC50: 110 nM

## O=c1[nH]c2ccc([N+](=O)[O-])cc2c(=O)cc1O [Compound 11]
[1]; read-out: IC50
  IC50: 300 µM

## O=c1cc(O)c(=O)[nH]c2c1C1CCC2CC1 [Compound 87, 6,9-Ethano-3-hydroxy-6,7,8,9-tetrahydro-1H-1-benzazepine-2,5-dione]
[1]; read-out: IC50
  IC50: 6.7 µM
glycine/NMDA receptor; [8]
  Ki: 332 nM
Male Swiss/Webster mice
  ED50: 8 mg/kg

## Cc1cc(C)c2c(=O)cc(O)c(=O)[nH]c2c1 [Compound 97, 6,8-Dimethyl-3-hydroxy-1H-1-benzazepine-2,5-dione]
[1]; read-out: IC50
  IC50: 26 µM

## O=c1cc(O)c(=O)[nH]c2c1CC(Cl)C(Cl)C2 (stereo not shown) [Compound 74, 3-Hydroxy-7,8-dichloro-6,7,8,9-tetrahydro-1H-1-benzazepine-2,5-dione]
[1]; read-out: IC50
  IC50: 3.6 µM
glycine/NMDA receptor; [8]
  Ki: 30 nM
Male Swiss/Webster mice
  ED50: 30 mg/kg
